# Laboratory results published in PMC11778240, “Synthesis and preclinical evaluation of tigilanol tiglate analogs as latency-reversing agents for the eradication of HIV” (Science Advances, 2025).
# What was measured:
# NF-κB pathway = assay: NF-κB activation assay, A549 cells with SEAP reporter; format: cell-based, Human; conditions: for NF-κB activation (optical density, 630 nm): 24 hours after dosing; for NF-κB activation (optical density, 630 nm) / NF-κB activation in words: A549 cells; for NF-κB activation, times the basal level (DMSO control) / NF-κB activation in words: 24 hours; for NF-κB activation in words: 50 and/or 500 nM
# Description: As a high-throughput method of screening compounds for their ability to get into cells and activate immunological pathways related to HIV latency reversal ([46], [70]), we conducted an NF-κB reporter assay using A549 cells stably integrated with a secreted embryonic alkaline phosphatase reporter under the control of a promoter fused to five NF-κB binding sites (Fig. 7B) ([48], [70], [71]).
# Human A549-Dual™ Cells supplied by InvivoGen (Cat. code a549d-nfis) and CHO-K1 cells were passaged when about 90% confluency was reached (approximately every three days). With each passage, media was aspirated from the cell layer, which was then washed with PBS. Following aspiration of the PBS, cells were detached from the culture flask with 0.25% GibcoTM Trypsin-EDTA and transferred to a 50 mL conical, which was volumed up with complete pre-warmed DMEM (4.5 g/L glucose, 10% FBS, and 1% Pen-Strep-Glutamine (100 X, 50 mg/mL)) or Ham's F-12K (Kaighn's) Medium supplemented with 10% FBS and 1% Pen-Strep (100 X, 50 mg/mL).
# This conical was spun down at 1800 rpm for 3 minutes, the supernatant was removed, and cells were resuspended in their respective fresh, pre-warmed media. To count cells, 10 μL of resuspended cells were added to a sterile microcentrifuge tube and mixed with 10 μL of trypan blue after which 10 μL of the mixture was pipetted into a Countess chamber slide. A Countess™ 3 Automated Cell Counter was subsequently utilized to determine cell viability and concentration.
# 1 x 10^6 cells were seeded with each passage into a T75 culture flask, and cells were incubated at […]
# Human A549 lung carcinoma cells (InvivoGen Cat. code a549d-nfis), stably integrated with a secreted embryonic alkaline phosphatase (SEAP) reporter, allow for the activity of the NF-κB pathway to be monitored. The SEAP reporter is under control of the interferon β (IFN-β) minimal promoter, which is fused to five NF-κB binding sites.
# 5 × 10^4 A549 cells were plated on Corning® 96 Well TC-Treated Microplates (CLS3595) in 180 μl of pre-warmed DMEM (4.5 g/L glucose, 10% heat-inactivated FBS (30 min at 56 ℃), and 1% Pen-Strep-Glutamine (100 X, 50 mg/mL)). Note that if cells were grown in media containing FBS that is not heat-inactivated, media will contain alkaline phosphatase. In this case, all supernatant must thoroughly be aspirated from the cell pellet obtained after centrifugation before resuspending cells in media containing heat inactivated FBS for plating. Following incubation at 37 °C in 5% CO2 for approximately 24 hours to allow for cell adherence onto the 96 well plate, 1.8 μL of each compound dissolved in DMSO was added in quadruplicate to their respective wells to achieve a final compound concentration of 1500 nM, 500 nM, or 50 nM. 1.8 μL of DMSO was added to wells as negative controls while wells treated with EBC-46 served as positive controls. 24 hours following compound addition, 180 μL of QUANTI-BlueTM Solution (InvivoGen Cat. code rep-qbs)- medium containing QB buffer and QB Reagent for detection and quantification of alkaline phosphatase- were added into wells on a new clear flat-bottom 96-well plate. 20 μL of supernatant of either SEAP-expressing cells incubated with compound or SEAP-expressing cells incubated with DMSO only were added to the wells in the new 96-well plate containing QUANTI-BlueTM Solution. Supernatant and QUANTI-BlueTM Solution were incubated at 37 °C in 5% CO2 for approximately an hour and a half. Following incubation, optical density (OD) at 630 nm was measured for each well using a BioTek Synergy H1 microplate reader under normal read speed and with a delay of 100 msec.
# J-Lat clone 10.6 cells = assay: J-Lat HIV latency reversal assay (GFP expression); format: cell-based, Human; conditions: J-Lat 10.6, 48 hours; for HIV latency reversal in words: ascending concentrations
# Description: Having shown that our lead compounds bind cell-free PKC isoforms, enter cells, translocate PKC-GFP fusion proteins, and activate NF-κB transcription factors, we next set out to determine whether our analogs were capable of reversing HIV from latency. We performed in vitro assays using T lymphocyte J-Lat clone 10.6, which contains a latent near full-length replication-incompetent integrated HIV DNA genome ([72]). J-Lat 10.6 lacks two viral genes, env and nef, which encode for the envelope protein and an accessory protein, respectively, and thus cannot initiate a spreading HIV infection. The integrated HIV provirus also encodes a GFP reporter gene, allowing latency reversal to be measured by quantification of GFP expression (fig. S1). […] In this latency reversal assay, we quantified GFP expression 48 hours after compound addition and observed bryostatin 1 to be maximally effective at concentrations of 40 nM or higher with latency reversal in 12% of cells (Fig. 8). Given the efficacy of bryostatin 1 as an LRA ([73], [74]), EBC-46 and many of its analogs tested in this J-Lat assay induced latency reversal in >90% of cells. […] SUW427, an esterase-releasable prodrug of EBC-46, also performed similarly to EBC-46 with a maximum efficacy of latency reversal in >90% of cells at a dose of 250 nM. […] The gradual release of EBC-46 from its prodrug form provides an alternative mode of administration that avoids the bolus effect associated with rapid drug administration ([17]). […] This is consistent with its lack of activity in the NF-κB activation assay and its design as a negative control as it is structurally similar to EBC-46 but unable to bind to the C1 domain of PKC at the concentrations used in this assay as it lacks a complete pharmacophore.
# HIV latency reversal in-vitro assay
# Human T Lymphocyte J-Lat Full Length Cell Line 10.6 (cat #9849) was obtained through the NIH HIV Reagent Program, Division of AIDS, NIAID, NIH and was contributed to the NIH HIV Reagent Program by Dr. Eric Verdin (70). J-Lat 10.6 cells were plated at 5 × 10^5 cells in 180 μL of RF10 media consisting of RPMI media supplemented with 1% Penicillin/Streptomycin and 10% Fetal Bovine Serum (FBS) in 96 -well U -bottom plates. J -Lat 10.6 cells were then stimulated for 48 hr by adding 20 μL of newly designed and synthesized tigilanol tiglate analogs, PKC modulators (bryostatin 1) as our positive control or med ia only (mock) as our negative control. Our negative control was RF10 media as the tigilanol tiglate analogs were freshly diluted with RF10 prior to plating. The final volume was 200 μL per well. Experiments were performed in three independent biological replicates, each completed in technical duplicates (n = 6). After 48 hr stimulation, 96 - well U -bottom plates were centrifuged at 296 RCF for 7 minutes to pellet cells, which were resusp ended in 200 μL of freshly prepared 2% paraformaldehyde (PFA) in PBS. GF P expression was measured 24 -hours post -fixation using the FITC channel on a LSR Fortessa (BD Biosciences) flow cytometer. Data analysis was conducted with FlowJo software version 10.8.1.
Structure (SMILES),"NF-κB activation (optical density, 630 nm) (NF-κB pathway; 50 nM)","NF-κB activation, times the basal level (DMSO control) (NF-κB pathway; 500 nM)","NF-κB activation (optical density, 630 nm) (NF-κB pathway; 500 nM)",NF-κB activation in words (NF-κB pathway),"maximal latency reversal, % of cells (J-Lat clone 10.6 cells; 250 nM)","NF-κB activation, times the basal level (DMSO control) (NF-κB pathway; 50 nM)",HIV latency reversal in words (J-Lat clone 10.6 cells)
"C/C=C(\C)C(=O)O[C@@H]1[C@@H](C)[C@@]2(O)[C@H]([C@@H]3C(C)(C)[C@]13OC(=O)[C@@H](C)CC)[C@@H]1O[C@]1(CO)[C@@H](O)[C@]1(O)C(=O)C(C)=C[C@H]12 [EBC-46, Tigilanol tiglate]","0.35 optical density, 630 nm",~ 2.5 times,"0.69 optical density, 630 nm",minimal activation of NF-κB relative to the dimethyl sulfoxide (DMSO) control,,,
C/C=C(\C)C(=O)O[C@@H]1[C@@H](C)[C@]2(O)[C@@H]3C=C(C)C(=O)[C@@]3(O)[C@H](O)C(CO)=C[C@H]2[C@@H]2C(C)(C)[C@]12OC(=O)[C@@H](C)CC [SUW400],"0.41 optical density, 630 nm",,"0.67 optical density, 630 nm",comparable activity to EBC-46 at 50 and 500 nM,> 90 % of cells,,
C/C=C(\C)C(=O)O[C@@H]1[C@@H](C)[C@@]2(O)[C@@H](C=C(CO)C[C@]3(O)C(=O)C(C)=C[C@@H]23)[C@@H]2C(C)(C)[C@]12OC(=O)[C@@H](C)CC [SUW402],"0.71 optical density, 630 nm",,"0.63 optical density, 630 nm",strong activation of NF-κB at higher concentrations but with an inverse dose response,,approximately three,
CC=C(C)C(=O)OC1C(C)C2(O)C(C3OC3(CO)CC3(O)C(=O)C(C)=CC32)C2C(C)(C)C12OC(=O)C(C)CC (stereo not drawn) [SUW403],"0.39 optical density, 630 nm",,"0.67 optical density, 630 nm",comparable activity to EBC-46 at 50 and 500 nM,,,required a higher dose than EBC-46 before we detected reversal activity
C/C=C(\C)C(=O)O[C@@H]1[C@@H](C)[C@@]2(O)[C@H]([C@@H]3C(C)(C)[C@]13OC(=O)C1CCC1)[C@@H]1O[C@]1(CO)[C@@H](O)[C@]1(O)C(=O)C(C)=C[C@H]12 [SUW406],"0.38 optical density, 630 nm",,"0.57 optical density, 630 nm",comparable activity to EBC-46 at 50 and 500 nM,,,required a higher dose than EBC-46 before we detected reversal activity
C/C=C(\C)C(=O)O[C@@H]1[C@@H](C)[C@@]2(O)[C@H]([C@@H]3C(C)(C)[C@]13OC(=O)[C@H](C)CC)[C@@H]1O[C@]1(CO)[C@@H](O)[C@]1(O)C(=O)C(C)=C[C@H]12 [SUW407],"0.42 optical density, 630 nm",,"0.60 optical density, 630 nm",comparable activity to EBC-46 at 50 and 500 nM,,,required a higher dose than EBC-46 before we detected reversal activity
CC[C@H](C)C(=O)O[C@@]12[C@H](OC(=O)C3(C)CC3)[C@@H](C)[C@@]3(O)[C@H]([C@@H]1C2(C)C)[C@@H]1O[C@]1(CO)[C@@H](O)[C@]1(O)C(=O)C(C)=C[C@H]13 [SUW413],"0.40 optical density, 630 nm",,"0.70 optical density, 630 nm",comparable activity to EBC-46 at 50 and 500 nM,,,required a higher dose than EBC-46 before we detected reversal activity
C/C=C(\C)C(=O)O[C@@H]1[C@@H](C)[C@@]2(O)[C@H]([C@@H]3C(C)(C)[C@]13OC(=O)N1CCCC1)[C@@H]1O[C@]1(CO)[C@@H](O)[C@]1(O)C(=O)C(C)=C[C@H]12 [SUW421],"0.30 optical density, 630 nm",,"0.31 optical density, 630 nm",minimal activity in this assay at 50 and 500 nM,,,
C/C=C(\C)C(=O)O[C@@H]1[C@@H](C)[C@]2(O)[C@@H]3C=C(C)[C@H](OC(=O)c4ccccc4)[C@@]3(O)[C@H](O)C(CO)=C[C@H]2[C@@H]2C(C)(C)[C@]12OC(=O)[C@@H](C)CC [SUW422],"0.26 optical density, 630 nm",,"0.36 optical density, 630 nm",minimal NF-κB activation at both 50 and 500 nM,,,required a higher dose than EBC-46 before we detected reversal activity
CC[C@H](C)C(=O)O[C@@]12[C@H](OC(=O)N3CCCC3)[C@@H](C)[C@@]3(O)[C@H]([C@@H]1C2(C)C)[C@@H]1O[C@]1(CO)[C@@H](O)[C@]1(O)C(=O)C(C)=C[C@H]13 [SUW424],"0.34 optical density, 630 nm",,"0.34 optical density, 630 nm",minimal activity in this assay at 50 and 500 nM,,,
C/C=C(\C)C(=O)O[C@@H]1[C@@H](C)[C@]2(O)[C@@H]3C=C(C)[C@H](OC(=O)C=C(C)C)[C@@]3(O)[C@H](O)C(CO)=C[C@H]2[C@@H]2C(C)(C)[C@]12OC(=O)[C@@H](C)CC [SUW425],"0.34 optical density, 630 nm",,"0.47 optical density, 630 nm",minimal NF-κB activation at both 50 and 500 nM,,,required a higher dose than EBC-46 before we detected reversal activity
